Test results taken from US20030055003A1, “Use of copper chelators to inhibit the inactivation of protein C” (priority 2001, published 2003).
Where “and” joins values, the source holds several entries; their conditions need not be identical. Identical values can stand only once. Where a SMILES comes first, the peptide text is derived from it.

Legend:
[1] = target: T1, activated protein C (APC) (Homo sapiens, UniProt P04070); assay: APC activity assay (Accucolor assay, modified for aqueous environment); type: biochemical
T1 construct: purchased Sigma (St. Louis, Mo.) P2200
Procedure: Materials. The human albumin N-terminus analogue, d-DAHK, was synthesized by Bowman Research, Ltd (Newport, Wales, U.K.). The assay for APC anticoagulant activity was the Accucolor™ calorimetric assay (Sigma Diagnostics, St. Louis, Mo.). […] Copper content of APC was determined by graphite furnace atomic absorption (Galbraith Laboratories, Knoxville, Tenn.).
APC activity assay. The APC assay, originally designed for plasma samples (Francis et al., Am. J. Clin. Pathol. 87, 619-625 (1987)) was modified for use in a clean, aqueous environment. […] Experiments were performed in a 96-well plate. […] Protein C substrate (2 mg/L) was then added to each well and incubated for ten minutes at 37° C. Concentrated acetic acid was added to each well to stop the reaction and the results were read at 410 nm on a microplate fluorescence reader (Model FL600, Bio-Tek Instruments, Inc., Winooski, Vt.).

[2] = Model of the blood brain barrier; type: in vitro ADME
Source text: In P1, Xaa1 is most preferably Asp, Xaa2 is most preferably Ala, and Xaa3 is most preferably Lys (see above). Thus, the preferred sequences of P1 are Asp Ala His and Asp Ala His Lys [SEQ ID NO: 1]. Most preferably the sequence of P1 is Asp Ala His Lys [SEQ ID NO: 1]. Asp Ala His is the minimum sequence of the N-terminal metal-binding site of human serum albumin necessary for the high-affinity binding of Cu(lI) and Ni(II), and Lys has been reported to contribute to the binding of these metal ions to this site. […] Other preferred sequences for P, include Thr Leu His (the N-terminal sequence of human a-fetoprotein), Arg Thr His (the N-terminal sequence of human sperm protamin HP2) and HMS HMS His (a synthetic peptide reported to form extremely stable complexes with copper; see Mlynarz et al., Speciation 98: Abstracts, Apr. 21, 1998, http://www.jate.uszeged.hu/spec98/abstr/mlynar.html).

T1 sequence (P04070 212-461 limits assumed): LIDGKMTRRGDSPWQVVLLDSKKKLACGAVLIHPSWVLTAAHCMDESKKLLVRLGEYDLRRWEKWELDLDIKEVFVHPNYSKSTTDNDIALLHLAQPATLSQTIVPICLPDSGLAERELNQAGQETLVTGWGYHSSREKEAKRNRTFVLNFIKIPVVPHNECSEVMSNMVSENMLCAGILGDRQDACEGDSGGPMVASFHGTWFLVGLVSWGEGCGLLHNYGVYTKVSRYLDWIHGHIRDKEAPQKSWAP
T1 sequence (P04070 43-197 limits assumed): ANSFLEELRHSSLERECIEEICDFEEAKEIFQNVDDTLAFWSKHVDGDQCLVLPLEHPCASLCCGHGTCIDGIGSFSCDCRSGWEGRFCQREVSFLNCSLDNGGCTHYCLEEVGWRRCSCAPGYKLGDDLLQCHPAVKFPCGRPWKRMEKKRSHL

[Cl][Cu][Cl] [CuCl2, reference compound]
overall mean decrease in APC activity compared to baseline ([1]; 10 μM CuCl2, mean of two separate experiments): 26.0%±11.8 | decrease in APC activity compared to baseline ([1]; 10 μM CuCl2 with APC 2 mg/L, 30 min 37° C., single experiment, mean±SD, n=3): 27.9%±15.5 and 24.1%±9.7

C[C@H](NC(=O)[C@@H](N)CC(=O)O)C(=O)N[C@@H](Cc1c[nH]cn1)C(=O)N[C@@H](CCCCN)C(=O)O [Asp Ala His Lys] (H-DAHK-OH; N-terminus and C-terminus assumed)
passage through a model of the blood brain barrier [2]: pass through a model of the blood brain barrier

D-Asp D-Ala D-His D-Lys [d-DAHK]
increase over baseline APC activity, chelator alone ([1]; 40 μM chelator with APC 2 mg/L, no added copper, 30 min 37° C., mean±SD): 18.2%±13.0 | protection of copper-induced inhibition of APC, lower d-DAHK:CuCl2 ratios ([1]; d-DAHK:CuCl2 ratios below 2:1 (1:4, 1:2, 1:1)): no significant protection | increase of APC activity over baseline, d-DAHK:CuCl2 2:1 ([1]; ratio 2:1 d-DAHK:CuCl2, 30 min 37° C.): 12.9%±1.1 | increase of APC activity over baseline, d-DAHK:CuCl2 4:1 ([1]; ratio 4:1 d-DAHK:CuCl2, 30 min 37° C.): 14.8%±12.7
